In the supplement of paper PMC10307832:

Legend:
Experiment in all cases: relative viability (nuclei count vs DMSO), 5 days (fraction); higher = more cells survive
Vandetanib + Alpelisib = compound: COc1cc2/c(=N/c3ccc(Br)cc3F)nc[nH]c2cc1OCC1CCN(C)CC1 [Vandetanib] + Cc1nc(NC(=O)N2CCC[C@H]2C(N)=O)sc1-c1ccnc(C(C)(C)C(F)(F)F)c1 [Alpelisib] (partner 2 µM)
Method in brief: (§1)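 Dosing by pin tool came one day after lung cancer cell lines were seeded in 1536-well plates, using either one drug or a fixed anchor-drug dose plus five library-drug doses (not always all listed) in √10 steps. After 5 days, nuclei were counted on 4× images. Relative viability is treated-well nuclei count divided by vehicle-well nuclei count, and values are medians of duplicate plates.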

[1] = compound: C1=CC=C2C(=C1)N=C(S2)C(C#N)C3=NC(=NC=C3)NCCC4=CN=CC=C4 + Nc1ncn([C@H]2C[C@H](O)[C@@H](CO)O2)c(=O)n1 [Decitabine] (partner 2 µM)
Method in brief: as §1

[2] = compound: C1=CC=C2C(=C1)N=C(S2)C(C#N)C3=NC(=NC=C3)NCCC4=CN=CC=C4 + Cc1nc(NC(=O)N2CCC[C@H]2C(N)=O)sc1-c1ccnc(C(C)(C)C(F)(F)F)c1 [Alpelisib] (partner 2 µM)
Method in brief: as §1

CUDC-101 + Tozasertib = compound: C#Cc1cccc(Nc2ncnc3cc(OC)c(OCCCCCCC(=O)NO)cc23)c1 [CUDC-101] + Cc1cc(Nc2cc(N3CCN(C)CC3)nc(Sc3ccc(NC(=O)C4CC4)cc3)n2)n[nH]1 [Tozasertib] (partner 0.1 µM)
Method in brief: as §1

Row | Cell Line | relative viability (Vandetanib + Alpelisib; first compound 0.02 µM) | relative viability (Vandetanib + Alpelisib; first compound 0.06325 µM) | relative viability (Vandetanib + Alpelisib; first compound 0.2 µM) | relative viability (Vandetanib + Alpelisib; first compound 0.6325 µM) | relative viability (Vandetanib + Alpelisib; first compound 2 µM) | relative viability ([1]; first compound 0.005 µM) | relative viability ([1]; first compound 0.01581 µM) | relative viability ([1]; first compound 0.05 µM) | relative viability ([1]; first compound 0.1581 µM) | relative viability ([1]; first compound 0.5 µM) | relative viability ([2]; first compound 0.005 µM) | relative viability ([2]; first compound 0.01581 µM) | relative viability ([2]; first compound 0.05 µM) | relative viability ([2]; first compound 0.1581 µM) | relative viability ([2]; first compound 0.5 µM) | relative viability (CUDC-101 + Tozasertib; first compound 0.01 µM) | relative viability (CUDC-101 + Tozasertib; first compound 0.03162 µM) | relative viability (CUDC-101 + Tozasertib; first compound 0.1 µM) | relative viability (CUDC-101 + Tozasertib; first compound 0.3162 µM) | relative viability (CUDC-101 + Tozasertib; first compound 1 µM)
1 | NCI-H1651 | 0.912 | 0.905 | 0.953 | 1.02 | 0.837 | 0.546 | 0.557 | 0.684 | 0.711 | 0.603 | 0.667 | 1.07 | 1.12 | 1.11 | 0.73 | 0.622 | 0.712 | 0.613 | 0.788 | 0.585
2 | NCI-H1666 | 0.89 | 0.764 | 0.793 | 0.668 | 0.401 | 0.72 | 0.696 | 0.8 | 0.738 | 0.798 | 0.915 | 0.971 | 0.876 | 1.11 | 0.892 | 0.594 | 0.564 | 0.676 | 0.565 | 0.507
3 | NCI-H1734 | 0.673 | 0.684 | 0.737 | 0.756 | 0.678 | 0.453 | 0.49 | 0.522 | 0.495 | 0.488 | 0.695 | 0.729 | 0.518 | 0.726 | 0.714 | 0.256 | 0.257 | 0.23 | 0.216 | 0.202
4 | NCI-H1755 | 0.935 | 0.888 | 0.872 | 0.896 | 0.858 | 0.673 | 0.789 | 0.683 | 0.75 | 0.7 | 0.839 | 1 | 0.959 | 1.03 | 0.849 | 0.478 | 0.563 | 0.572 | 0.602 | 0.584
5 | NCI-H1793 | 0.65 | 0.635 | 0.623 | 0.756 | 0.512 |  | 0.521 | 0.424 | 0.538 | 0.465 | 0.692 | 0.521 | 0.55 | 0.763 | 0.739 | 0.321 | 0.237 | 0.325 | 0.293 | 0.375
6 | NCI-H1915 | 0.964 | 1.05 | 1.04 | 1.08 | 1.05 |  | 0.259 | 0.239 | 0.264 | 0.27 | 0.997 | 1.05 | 1.04 | 1.12 | 1.05 | 0.437 | 0.458 | 0.429 | 0.357 | 0.288
7 | NCI-H1944 | 0.781 | 0.81 | 0.807 | 0.757 | 0.744 | 0.404 | 0.497 | 0.412 | 0.433 | 0.388 | 0.799 | 0.86 | 0.771 | 0.835 | 0.803 | 0.268 | 0.213 | 0.275 | 0.236 | 0.17
8 | NCI-H1975 | 0.583 | 0.573 | 0.597 | 0.63 | 0.477 | 0.436 | 0.341 | 0.334 | 0.432 | 0.434 | 0.352 | 0.669 | 0.62 | 0.668 | 0.403 | 0.741 | 0.717 | 0.843 | 0.837 | 0.701
9 | NCI-H1993 | 0.668 | 0.706 | 0.648 | 0.582 | 0.703 | 0.663 | 0.641 | 0.607 | 0.699 | 0.59 | 0.671 | 0.692 | 0.645 | 0.652 | 0.747 | 0.592 | 0.517 | 0.624 | 0.53 | 0.502
10 | NCI-H2009 | 1.16 | 1.07 | 1.2 | 1.15 | 1.15 | 0.37 | 0.386 | 0.379 | 0.427 | 0.397 | 1.13 | 1.22 | 1.18 | 1.16 | 1.12 | 0.8 | 0.695 | 0.778 | 0.801 | 0.639
11 | NCI-H2023 | 0.568 | 0.49 | 0.732 | 0.524 | 0.486 | 0.245 | 0.236 | 0.209 | 0.245 | 0.243 | 0.625 | 0.659 | 0.649 | 0.681 | 0.404 | 0.336 | 0.337 | 0.363 | 0.328 | 0.293
12 | NCI-H2085 | 0.98 | 0.901 | 0.873 | 0.869 | 0.936 | 0.518 | 0.555 | 0.585 | 0.502 | 0.533 | 0.87 | 0.875 | 0.912 | 0.959 | 0.867 | 0.708 | 0.786 | 0.882 | 0.726 | 0.705
13 | NCI-H2087 | 0.953 | 1.17 | 1.28 | 1.04 | 1.07 | 0.255 | 0.266 | 0.345 | 0.367 | 0.282 | 1.06 | 1.14 | 0.979 | 1.14 | 1.05 | 0.292 | 0.243 | 0.233 | 0.195 | 0.223
14 | NCI-H2126 | 0.787 | 0.74 | 0.757 | 0.737 | 0.674 | 0.495 | 0.579 | 0.565 | 0.546 | 0.577 | 0.722 | 0.734 | 0.773 | 0.765 | 0.793 | 0.892 | 0.79 | 0.807 | 0.867 | 0.743
15 | NCI-H2170 | 0.782 | 0.799 | 0.746 | 0.805 | 0.781 | 0.419 | 0.46 | 0.425 | 0.468 | 0.488 |  | 0.801 | 0.845 | 0.838 | 0.723 | 0.632 | 0.698 | 0.753 | 0.62 | 0.345
16 | NCI-H2347 | 1.01 | 0.591 | 1.05 | 1.28 | 1.03 | 0.638 | 0.634 | 0.556 | 0.683 | 0.654 | 1.1 | 0.992 | 0.954 | 1.05 | 1.18 | 0.561 | 0.614 | 0.608 | 0.583 | 0.499
